Here are results for one molecule from patent US7531555B2, “Compositions and methods for selective inhibition of nicotine acetylcholine receptors” (University of Florida Research Foundation, Inc., priority 2003, dated 2009).

Molecules are shown by their SMILES. Where two headings read alike, the source gives them in different places.

For one assay, the target named is T1, Human α3β2 (Homo sapiens, UniProt P17787+P32297).
T1 construct: expressed in transfected cells; host or cells: Xenopus laevis oocytes injected with subunit cRNAs
Briefly: Voltage clamp of Xenopus oocytes expressing human α3β2 nAChR. It is filed as cell-based. The method, then:
(§1) Mature (>9 cm) female Xenopus laevis African frogs (NASCO, Ft. Atkinson, Wis.) were used as a source of oocytes. Prior to surgery, frogs were anesthetized by placing the animal in a 1.5 g/l solution of MS222 (3-aminobenzoic acid ethyl ester) for 30 minutes. Oocytes were removed from an incision made in the abdomen.
(§2) In order to remove the follicular cell layer, harvested oocytes were treated with 1.25 mg/ml collagenase from Worthington Biochemical Corporation (Freehold, N.J.) for 2 hours at room temperature in calcium-free Barth's solution (88 mM NaCl, 10 mM HEPES pH 7.6, 0.33 mM MgSO4, 0.1 mg/ml gentamicin sulfate). Subsequently, stage 5 oocytes were isolated and injected with 50 nl (5-20 ng) each of the appropriate subunit cRNAs. Recordings were made 2 to 15 days after injection.
(§3) After linearization and purification of cloned cDNAs, RNA transcripts were prepared in vitro using the appropriate mMessage mMachine kit from Ambion Inc. (Austin, Tex.).
(§4) Electrophysiology. The majority of experiments were conducted using OpusXpress 6000A (Axon Instruments, Union City Calif.). OpusXpress is an integrated system that provides automated impalement and voltage clamp of up to eight oocytes in parallel. Cells were automatically perfused with bath solution, and agonist solutions were delivered from a 96-well plate. Both the voltage and current electrodes were filled with 3 M KCl. The agonist solutions were applied via disposable tips, which eliminated any possibility of cross-contamination. Drug applications alternated between ACh controls and experimental applications. Flow rates were set at 2 ml/min for experiments with α7 receptors and 4 ml/min for other subtypes. Cells were voltage-clamped at a holding potential of −60 mV. Data were collected at 50 Hz and filtered at 20 Hz. Agonist applications were 12 seconds in duration followed by 181-second washout periods for α7 receptors and 8 seconds with 241-second wash periods for other subtypes. For some experiments, particularly under conditions where residual inhibition precluded making repeated measurements from single cells (see below), manual oocyte recordings were made as previously described (Papke and Papke Br J of Pharmacol, 2002, 137:49-61). In brief, Warner Instruments (Hamden, Conn.) OC-725C oocyte amplifiers were used, and data were acquired with a minidigi or digidata 1200A with pClamp9 software (Axon Instruments). Sampling rates were between 10 and 20 Hz and the data were filtered at 6 Hz. Cells were voltage clamped at a holding potential of −50 mV.
Experimental protocols and data analysis. Each oocyte received two initial control applications of ACh, an experimental drug application (or co-application of ACh and TMPH), and then follow-up control application(s) of ACh. The control ACh concentrations for α1β1γδ, α3β4, α4β2, α3β2, α3β2α5, α3β2β3, α6/3β2β3 α6β4β3 and α7, receptors were 30 μM, 100 μM, 10 μM, 30 μM, 1 μM 100 μM 100 μM 100 μM and 300 μM, respectively. In other experiments (Papke et al. J. Neurochem., 2000, 75:204-216; Papke and Papke Br J of Pharmacol, 2002, 137:49-61) these concentrations were determined to be the EC74, EC15, EC22, EC17, EC40, EC70, EC55, EC70 and EC100, respectively. […]
Responses to experimental drug applications were calculated relative to the preceding ACh control responses in order to normalize the data, compensating for the varying levels of channel expression among the oocytes. […]

For a further assay, the target named is T2, Rat α3β2β3 (Rattus norvegicus, UniProt P04757+P12390+P12391).
T2 construct: expressed in transfected cells; host or cells: Xenopus laevis oocytes injected with subunit cRNAs; clones from Dr. Jim Boulter (UCLA)
Briefly: Voltage clamp of Xenopus oocytes expressing α3β2β3 nAChR. Format: cell-based. As to the method: as §1, §2
Rat neuronal nAChR clones and mouse muscle nAChR cDNA clones were used. The wild-type clones were obtained from Dr. Jim Boulter (UCLA). The rat α6/3 (Dowell et al. J Neurosci, 2003, 23:8445-8452) clone was obtained from Michael McIntosh (University of Utah) and expressed in Xenopus oocytes in combinations with rat β2 and β3. […] The TM2 domain is understood to line the pore of the channel, with alpha helix structure. The 7′ position may actually be directed away from the actual pore lining, but this residue is highly conserved in all of the nAChR. It is valine in all of them except α9 (isoleucine) and β1, where it is alanine. The TM2 mutation in the α6/3 chimera was corrected by using QuickChange (Stratagene) according to their protocols. The corrected α6/3 chimera sequence was confirmed by restriction diagnostics and by automated fluorescent sequencing (University of Florida core facility). The corrected clone was expressed as above in Xenopus oocytes with β2 and β3 and compared to the wild-type α3 co-expressed with β2 and β3.
as §3
as §4, with “Cells were voltage clamped at a holding potential of −50 mV.” left out

Where [1] appears, read: inhibition still present after 5-minute wash, read-out: IC50 (recovery).

T2 sequence (P04757 26-499): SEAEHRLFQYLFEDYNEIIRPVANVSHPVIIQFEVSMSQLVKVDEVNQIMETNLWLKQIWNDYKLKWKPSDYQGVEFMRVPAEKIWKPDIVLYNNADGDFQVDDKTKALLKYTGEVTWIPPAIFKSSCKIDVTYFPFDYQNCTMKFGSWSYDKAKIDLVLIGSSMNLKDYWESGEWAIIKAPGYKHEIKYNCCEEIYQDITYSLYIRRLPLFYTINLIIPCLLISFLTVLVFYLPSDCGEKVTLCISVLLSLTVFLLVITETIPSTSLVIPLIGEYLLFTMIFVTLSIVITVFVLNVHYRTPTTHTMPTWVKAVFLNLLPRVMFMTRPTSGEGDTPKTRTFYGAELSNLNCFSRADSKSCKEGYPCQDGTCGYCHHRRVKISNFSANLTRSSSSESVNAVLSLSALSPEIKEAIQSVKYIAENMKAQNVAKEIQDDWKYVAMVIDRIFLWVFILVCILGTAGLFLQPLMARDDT
T2 sequence (P12390 25-500): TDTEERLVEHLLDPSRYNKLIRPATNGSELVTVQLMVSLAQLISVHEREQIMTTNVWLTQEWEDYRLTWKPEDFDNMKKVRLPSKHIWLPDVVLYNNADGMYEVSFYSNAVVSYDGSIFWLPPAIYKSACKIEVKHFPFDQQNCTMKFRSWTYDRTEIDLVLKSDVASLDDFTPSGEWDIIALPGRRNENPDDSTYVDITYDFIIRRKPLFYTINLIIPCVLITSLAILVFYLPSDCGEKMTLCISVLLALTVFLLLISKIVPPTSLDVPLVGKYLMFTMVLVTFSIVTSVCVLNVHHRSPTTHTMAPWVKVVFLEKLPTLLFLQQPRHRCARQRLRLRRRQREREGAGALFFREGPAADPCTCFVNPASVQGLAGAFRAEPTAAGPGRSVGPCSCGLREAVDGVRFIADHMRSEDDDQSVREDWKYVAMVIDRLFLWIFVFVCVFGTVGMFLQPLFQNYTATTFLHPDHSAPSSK
T2 sequence (P12391 31-464): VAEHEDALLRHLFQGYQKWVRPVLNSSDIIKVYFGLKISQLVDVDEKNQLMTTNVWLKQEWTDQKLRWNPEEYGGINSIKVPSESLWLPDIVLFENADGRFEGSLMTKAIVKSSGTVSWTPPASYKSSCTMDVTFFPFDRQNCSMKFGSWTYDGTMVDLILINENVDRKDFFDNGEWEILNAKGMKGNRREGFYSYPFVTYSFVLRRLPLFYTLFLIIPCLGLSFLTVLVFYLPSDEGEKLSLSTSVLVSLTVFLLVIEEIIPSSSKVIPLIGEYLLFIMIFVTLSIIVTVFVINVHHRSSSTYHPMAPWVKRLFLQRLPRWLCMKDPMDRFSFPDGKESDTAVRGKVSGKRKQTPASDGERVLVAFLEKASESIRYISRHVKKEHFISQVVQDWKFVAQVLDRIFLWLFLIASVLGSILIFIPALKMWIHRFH
T1 sequence (P32297 32-505): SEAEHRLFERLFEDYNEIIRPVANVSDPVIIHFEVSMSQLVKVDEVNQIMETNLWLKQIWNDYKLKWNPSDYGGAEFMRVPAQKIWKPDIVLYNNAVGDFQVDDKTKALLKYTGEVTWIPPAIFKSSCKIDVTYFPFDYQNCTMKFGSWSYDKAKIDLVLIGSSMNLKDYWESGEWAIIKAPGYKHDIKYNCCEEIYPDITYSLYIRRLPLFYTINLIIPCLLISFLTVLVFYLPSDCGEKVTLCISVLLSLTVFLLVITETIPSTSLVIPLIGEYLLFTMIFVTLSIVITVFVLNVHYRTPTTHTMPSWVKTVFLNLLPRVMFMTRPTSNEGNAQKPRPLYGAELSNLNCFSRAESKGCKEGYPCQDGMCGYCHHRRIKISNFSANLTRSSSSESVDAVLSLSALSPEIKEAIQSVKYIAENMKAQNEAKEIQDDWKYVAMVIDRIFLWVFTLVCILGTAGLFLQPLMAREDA
T1 sequence (P17787 26-502): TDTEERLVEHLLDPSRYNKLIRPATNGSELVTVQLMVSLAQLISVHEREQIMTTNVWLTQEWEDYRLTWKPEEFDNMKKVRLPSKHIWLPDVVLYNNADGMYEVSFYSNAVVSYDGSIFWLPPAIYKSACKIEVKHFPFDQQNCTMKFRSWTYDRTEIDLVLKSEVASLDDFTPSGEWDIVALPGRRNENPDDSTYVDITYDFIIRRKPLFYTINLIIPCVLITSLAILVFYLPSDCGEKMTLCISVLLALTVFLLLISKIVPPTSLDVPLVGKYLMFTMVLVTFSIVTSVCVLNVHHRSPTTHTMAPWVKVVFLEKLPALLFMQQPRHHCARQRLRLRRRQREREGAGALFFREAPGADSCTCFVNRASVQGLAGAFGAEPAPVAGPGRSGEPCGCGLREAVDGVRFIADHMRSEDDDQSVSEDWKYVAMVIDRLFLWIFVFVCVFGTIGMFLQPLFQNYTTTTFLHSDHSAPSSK

With `CCCCCCC(=O)OC1CC(C)(C)NC(C)(C)C1` [TMPH, 2,2,6,6-tetramethylpiperidin-4-yl heptanoate], the IC50 at Human α3β2 (decrease in net charge, 30 μM ACh co-applied with TMPH, read-out: IC50 (area)) came to 0.46 ± 0.17 µM; at Human α3β2 (decrease in peak current amplitude, 30 μM ACh co-applied with TMPH, read-out: IC50 (peak)), 3.7 ± 1.2 µM; on Human α3β2 (setting [1]) it was 0.4 ± 0.12 µM; at Rat α3β2β3 (decrease in net charge, 100 μM ACh co-applied with TMPH, read-out: IC50 (area)) it was 2.7 ± 0.6 µM; at Rat α3β2β3 (decrease in peak current amplitude, 100 μM ACh co-applied with TMPH, read-out: IC50 (peak)), 120 ± 80 µM; at Rat α3β2β3 (setting [1]), 4.3 ± 1.5 µM. Moreover, the “IC50 net charge/IC50 peak” value on Human α3β2 (ratio) was 0.12; at Rat α3β2β3 (ratio), 0.025. The results for the “IC50 recovery/IC50 net charge” value at Human α3β2 (ratio) and on Rat α3β2β3 (ratio) were 0.87 and 1.6, respectively.

As a reminder, the IC50 is the concentration at which inhibition is half-maximal.
